Measured values from patent US8058245B2, “Fused heterocycle derivative, medicinal composition containing the same, and medicinal use thereof” (Kissei Pharmaceutical Co., Ltd., priority 2004, dated 2011).

Experiments:
[1] = target: T1, human SGLT2 (Homo sapiens, UniProt P31639); assay: Assay for inhibitory effects on human SGLT2 activity (uptake of methyl-α-D-glucopyranoside in CS2-5E cells); assay type: cell-based; conditions: CHO-K1 cells stably expressing human SGLT2 (CS2-5E); 50% inhibition of uptake of 1 mM 14C-labeled/non-labeled methyl-α-D-glucopyranoside, 37° C., 1 hour
T1 construct: expressed in transfected cells
T1 sequence (P31639 1-672): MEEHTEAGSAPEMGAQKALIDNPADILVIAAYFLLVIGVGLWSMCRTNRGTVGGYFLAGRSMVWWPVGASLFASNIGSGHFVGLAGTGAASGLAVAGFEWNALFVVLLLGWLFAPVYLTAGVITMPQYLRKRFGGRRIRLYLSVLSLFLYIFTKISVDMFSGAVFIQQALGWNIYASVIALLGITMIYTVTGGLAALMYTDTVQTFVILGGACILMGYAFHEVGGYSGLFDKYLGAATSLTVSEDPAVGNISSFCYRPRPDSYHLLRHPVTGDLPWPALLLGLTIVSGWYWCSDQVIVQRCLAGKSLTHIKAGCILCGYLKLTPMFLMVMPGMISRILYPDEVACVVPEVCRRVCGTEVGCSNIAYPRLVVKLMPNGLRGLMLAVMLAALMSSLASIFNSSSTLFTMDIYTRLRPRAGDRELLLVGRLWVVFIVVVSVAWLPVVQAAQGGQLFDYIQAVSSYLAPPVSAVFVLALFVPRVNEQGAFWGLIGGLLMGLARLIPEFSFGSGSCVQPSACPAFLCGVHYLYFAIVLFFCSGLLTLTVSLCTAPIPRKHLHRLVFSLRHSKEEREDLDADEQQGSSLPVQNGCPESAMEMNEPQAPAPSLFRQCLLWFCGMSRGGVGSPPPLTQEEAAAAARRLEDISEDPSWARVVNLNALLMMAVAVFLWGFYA
Description: Assay for Inhibitory Effects on Human SGLT2 Activity
1) Cloning and Construction of the Vector Expressing Human SGLT2
The cDNA library was prepared for PCR amplification by reverse transcription from total RNA deprived from human kidney (Ori gene) using oligo-dT as a primer. Using this cDNA library as a template, the DNA fragment coding 2 to 2039 bp of human SGLT2 (ACCESSION: M95549, M95299), which was reported by R. G. Wells et al., was amplified by PCR method and inserted into the multi-cloning site of pcDNA3.1 (−) (Invitrogen). The DNA sequence inserted was perfectly matched to the previously reported sequence.
2) Establishment of Cell Line Stably Expressing Human SGLT2
The expression vector of human SGLT2 was digested by Sca I into a linear DNA. The linear DNA was transfected into CHO-K1 cells by means of lipofection (Effectene Transfection Reagent: QIAGEN). Neomycin resistant cell lines were selected by culture in the medium containing G418 (1 mg/mL, LIFE TECHNOLOGIES), and then the activity against the uptake of methyl-α-D-glucopyranoside was measured by the method described below. […] CS2-5E cells were cultured in the presence of G418 at 200 μg/mL. […]
CS2-5E cells were seeded into a 96-well culture plate at a density of 3×10^4 cells/well and cultured for 2 days, and were used in the uptake assay. […] Radio activity was measured by means of micro-scintillation counter TopCount (Packard). […]

[2] = target: T2, human SGLT1 (Homo sapiens, UniProt P13866); assay: Assay for inhibitory effects on human SGLT1 activity (uptake of methyl-α-D-glucopyranoside in CS1-5-11D cells); assay type: cell-based; conditions: CHO-K1 cells stably expressing human SGLT1 (CS1-5-11D); 50% inhibition of uptake of 1 mM 14C-labeled/non-labeled methyl-α-D-glucopyranoside, 37° C., 1 hour
T2 construct: expressed in transfected cells
T2 sequence (P13866 1-664): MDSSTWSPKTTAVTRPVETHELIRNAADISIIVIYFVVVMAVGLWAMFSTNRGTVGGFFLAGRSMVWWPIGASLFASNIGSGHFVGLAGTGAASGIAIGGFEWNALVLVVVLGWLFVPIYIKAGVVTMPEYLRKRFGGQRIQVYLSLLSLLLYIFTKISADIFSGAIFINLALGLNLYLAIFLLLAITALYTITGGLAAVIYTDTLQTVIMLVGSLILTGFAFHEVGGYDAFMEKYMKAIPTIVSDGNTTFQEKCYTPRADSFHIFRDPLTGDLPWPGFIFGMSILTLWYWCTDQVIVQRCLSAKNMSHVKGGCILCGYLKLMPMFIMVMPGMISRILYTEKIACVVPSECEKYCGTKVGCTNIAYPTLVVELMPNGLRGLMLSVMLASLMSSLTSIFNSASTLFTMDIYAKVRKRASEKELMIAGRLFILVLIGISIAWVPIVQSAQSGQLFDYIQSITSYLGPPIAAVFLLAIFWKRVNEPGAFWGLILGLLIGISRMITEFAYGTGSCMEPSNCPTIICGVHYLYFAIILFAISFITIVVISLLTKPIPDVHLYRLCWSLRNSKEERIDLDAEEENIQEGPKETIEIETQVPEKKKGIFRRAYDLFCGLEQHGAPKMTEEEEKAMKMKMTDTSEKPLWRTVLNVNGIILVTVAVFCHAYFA
Description: Test Example 1 Assay for Inhibitory Effects on Human SGLT1 Activity 1) Cloning and Construction of the Vector Expressing Human SGLT1 The cDNA library was prepared for PCR amplification by reverse transcription from total RNA deprived from human small intestine (Ori gene) using oligo-dT as a primer. Using this cDNA library as a template, the DNA fragment coding 1 to 2005 bp of human SGLT1 (ACCESSION: M24847), which was reported by Hediger et al., was amplified by PCR method and inserted into the multi-cloning site of pcDNA3.1 (−) (Invitrogen). The DNA sequence inserted was perfectly matched to the previously reported sequence. 2) Establishment of Cell Line Stably Expressing Human SGLT1 The expression vector of human SGLT1 was digested by Sca I into a linear DNA. The linear DNA was transfected into CHO-K1 cells by means of lipofection (Effectene Transfection Reagent: QIAGEN). Neomycin resistant cell lines were selected by culture in the medium containing G418 (1 mg/mL, LIFE TECHNOLOGIES), and then the activity against the uptake of methyl-α-D-glucopyranoside was measured by the method described below. […] Radio activity was measured by means of micro-scintillation counter TopCount (Packard). One hundred % was set to the difference between the uptake in the control group and the basal uptake, and the uptake of methyl α-D-glucopyranoside at each drug concentration were calculated. […]

IC50 [1] [nM] | IC50 [2] [nM] | Structure (SMILES)
1.4 | – | CCc1ccc(Cc2csc3ccc([C@@H]4O[C@H](CO)[C@@H](O)[C@H](O)[C@H]4O)cc23)cc1 [Example 9]
57 | – | COc1cc2occ(CCc3ccccc3)c2cc1[C@@H]1O[C@H](CO)[C@@H](O)[C@H](O)[C@H]1O [Example 2, 1-[6-Methoxy-3-(2-phenylethyl)benzo[b]furan-5-yl]-1-deoxy-β-D-glucopyranose]
– | 1500 | OC[C@H]1O[C@@H](c2ccc3scc(CCc4ccccc4)c3c2)[C@H](O)[C@@H](O)[C@@H]1O [Example 1, 1-[3-(2-Phenylethyl)benzo[b]thiophen-5-yl]-1-deoxy-β-D-glucopyranose]
